# Measured values taken from patent publication US7276511B2, “Benzylamine derivative” (Zeria Pharmaceutical Co., Ltd., priority 2003, dated 2007).
# Structures can show the parent of a compound that is named as a salt.
# Target: T1, Cloned Neurokinin Receptor Subtype 2 Human (Homo sapiens, UniProt P21452)
# T1 construct: purchased Biosignal Packard; host or cells: CHO cells
# T1 sequence (P21452 1-398): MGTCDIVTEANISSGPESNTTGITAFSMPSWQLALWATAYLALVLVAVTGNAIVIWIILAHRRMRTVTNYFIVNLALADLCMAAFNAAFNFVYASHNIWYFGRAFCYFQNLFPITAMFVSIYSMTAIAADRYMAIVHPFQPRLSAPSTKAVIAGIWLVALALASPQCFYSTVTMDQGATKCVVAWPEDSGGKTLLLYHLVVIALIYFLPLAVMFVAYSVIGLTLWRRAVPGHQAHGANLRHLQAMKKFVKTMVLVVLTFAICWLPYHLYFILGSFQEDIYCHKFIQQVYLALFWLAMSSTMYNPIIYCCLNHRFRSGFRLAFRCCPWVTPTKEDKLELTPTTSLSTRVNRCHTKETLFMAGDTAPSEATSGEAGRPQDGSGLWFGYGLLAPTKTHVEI
# Test: NK-2 receptor-binding experiment ([3H]-SR48968, CHO cell membranes)
# Details: Table 3; inhibition of [3H]-SR48968 (0.85 nM) binding, pseudo-Hill analysis
# Experimental: 2. NK-2 Receptor-binding Experiment
# Cloned Neurokinin Receptor Subtype 2 Human (CHO cells, Biosignal Packard), [^3H]-SR48968 (Amersham, final concentration 0.85 nM), and a test compound were mixed with 20 mM HEPES buffer, and the mixture was incubated for 50 minutes at 27° C. After completion of incubation, membrane components were collected by means of an automatic filtration apparatus (Brandel) onto a GF/C glass fiber filter (Whatman).
# Before use, in order to prevent non-specific binding, the glass fiber filter had been pre-treated with 0.1% polyethylene imine solution for about 4 hours.
# The filter employed to collect the membrane components was transferred to a plastic vial containing UltimaGold MV (5 mL), and measured by means of a liquid scintillation counter (Packard, 2000CA) in terms of the radioactivity.
# (§1) Percent radioactive ligand-receptor binding inhibition of each test compound was calculated by use of the following equation, and IC50 (nM) was determined through pseudo-Hill analysis.
# (§2) Percent inhibition (%)=[1−(C−A)/(B−A)]×100
# (§3) A: Radioactivity attributed to non-specific binding
# (§4) B: Radioactivity without test compound
# (§5) C: Radioactivity with test compound
row,Structure (SMILES),IC50 [nM]
1,"CN(C[C@](CCN1CCC2(CC1)c1ccccc1C[S@+]2[O-])(c1ccc(Cl)c(Cl)c1)N(C)C(=O)c1ccccc1)C(=O)C(F)(F)F [Compound No. 26, N-{1-(2,2,2-trifluoro-N-methylacetamide)-2-(S)-(3,4-dichlorophenyl)-4-[spiro(benzo(c)thiophene-(2S)-oxido-1(3H),4′-piperidin)-1′-yl]butan-2-yl}-N-methylbenzamide hydrochloride]",0.85
2,"CCN(C(=O)C(=O)N(C)[C@](CCN1CCC2(CC1)c1ccccc1C[S@+]2[O-])(CN(C)C(=O)C(C)(C)C)c1ccc(Cl)c(Cl)c1)c1ccccc1 [Compound No. 37, N^1-{[1-(N-methyl-trimethylacetamide)-2-(S)-(3,4-dichlorophenyl)-4-[spiro(benzo(c)thiophene-(2S)-oxido-1(3H),4′-piperidin)-1′-yl]butan-2-yl}-N^1-methyl-N^2-ethyl-N^2-phenyloxalamide hydrochloride]",1.8
3,"CC(C)C(=O)N(C)C[C@](CCN1CCC2(CC1)c1ccccc1C[S@+]2[O-])(c1ccc(Cl)c(Cl)c1)N(C)C(=O)c1ccccc1 [Compound No. 32, N-{1-(N-methylisobutylamide)-2-(S)-(3,4-dichlorophenyl)-4-[spiro(benzo(c)thiophene-(2S)-oxido-1(3H),4′-piperidin)-1′-yl]butan-2-yl}-N-methylbenzamide hydrochloride]",1
4,"CN(C[C@](CCN1CCC2(CC1)NC(=O)Cc1ccccc12)(c1ccc(Cl)c(Cl)c1)N(C)C(=O)c1ccccc1)C(=O)C(F)(F)F [Compound No. 23, N-{1-(2,2,2-trifluoro-N-methylacetamide)-2-(S)-(3,4-dichlorophenyl)-4-[3-oxo-3,4-dihydro-2H-spiro(isoquinoline-1,4′-piperidin)-1′-yl]butan-2-yl}-N-methylbenzamide hydrochloride]",1.7
5,"CN(CC(CCN1CCC2(CC1)c1ccccc1CS2(=O)=O)(c1ccc(Cl)c(Cl)c1)N(C)C(=O)NC(c1ccccc1)c1ccccc1)C(=O)C(F)F (stereo not drawn) [Compound No. 11, N-[2-(3-Benzhydryl-1-methyl-ureido)-2-(3,4-dichloro-phenyl)-4-{spiro[benzo(c)thiophene-1(3H),4′-piperidine]-2,2-dioxido}-1′-yl-butyl]-2,2-difluoro-N-methyl-acetamide hydrochloride]",8.1
6,"CCN(C(=O)C(=O)N(C)[C@](CCN1CCC2(CC1)c1ccccc1C[S@+]2[O-])(CN(C)C(=O)CC(F)(F)F)c1ccc(Cl)c(Cl)c1)c1ccccc1 [Compound No. 25, N^1-{1-(3,3,3-trifluoro-N-methylpropanamido)-2-(S)-(3,4-dichlorophenyl)-4-[spiro(benzo(c)thiophene-(2S)-oxido-1(3H),4′-piperidin)-1′-yl]butan-2-yl}-N^1-methyl-N^2-ethyl-N^2-phenyloxalamide hydrochloride]",0.58
7,"CN(C[C@](CCN1CCC2(CC1)NC(=O)Cc1ccccc12)(c1ccc(Cl)c(Cl)c1)N(C)C(=O)C(=O)Nc1ccccc1)C(=O)C(F)(F)F [Compound No. 29, N^1-{1-(2,2,2-trifluoro-N-methylacetamide)-2-(S)-(3,4-dichlorophenyl)-4-[3-oxo-3,4-dihydro-2H-spiro(isoquinoline-1,4′-piperidin)-1′-yl]butan-2-yl}-N^1-methyl-N^2-phenyloxalamide hydrochloride]",4
8,"CN(CC(CCN1CCC2(CC1)c1ccccc1C[S+]2[O-])(c1ccc(Cl)c(Cl)c1)N(C)C(=O)c1ccccc1)C(=O)CC(F)(F)F [Compound No. 13, N-{1-(3,4-Dichloro-phenyl)-1-{[methyl-(3,3,3-trifluoro-propionyl)-amino]-methyl}-3-{spiro[benzo(c)thiophene-1(3H),4′-piperidine]-(2S)-oxido}-1′-yl-propyl}-N-methyl-benzamide hydrochloride]",2.6

# Target: NK-1 receptor (Homo sapiens, UniProt P25103)
# Test: NK-1 receptor-binding test ([3H]-Substance P, hNK1-CHO cells)
# Parameters: expressed in transfected cells; host or cells: CHO-K1 cells (ATCC: CCL-61), G418-resistant, hNK1-CHO
# Details: not given
# Experimental: 1. NK-1 Receptor-binding Test
# 1) Preparation of Human NK-1 Receptor Expression Cells
# FuGene 6 transfection reagent (Boegringer Mannheim) (3 μL) was diluted in an F-12 culture broth (97 μL), and pCR3.1 plasmid to which human NK-1 receptor cDNA had been introduced (Invitrogen) (10 μL) was added thereto. The mixture was mixed and incubated for 15 minutes (transfection reagent). CHO-K1 cells (ATCC: CCL-61) were cultured for 24 hours, and the whole reagent prepared above was added to the cultured CHO-K1 cells ([…]). Subsequently, culture was performed in the presence of G418 (Stratagene), and the resistant cells were employed as cells into which human NK-1 receptor gene was introduced (hNK1-CHO).
# 2) Subcultivation of hNK1-CHO Cells
# The hNK1-CHO cells were treated with trypsin-EDTA and subcultivated in an F-12 culture broth (containing 10% fetal bovine serum, 10 mM HEPES, 100 U/mL, penicillin, 100 μg/mL streptmycin, 400 μg/mL G418) in a 75-cm^2 flask (FALCON). Cells to be employed in the receptor-binding experiment were added to a 24-well plate (IWAKI) at 1×10^5 cells/well, and subcultured for 48 hours at 37° C. under 95% […] and 5% CO2.
# 3) Receptor-binding Experiment
# When the hNK1-CHO cells became subconfluent on the 24-well plate, an F-12 culture broth (containing 10 mM HEPES and 0.1% fetal bovine serum) (450 μL), [^3H]-Substance P (Amersham, final concentration 0.5 nM), and a test compound were added to the cells, and the mixture was incubated for 40 minutes at 37° C. For the measurement of non-specific binding, L703606 (Sigma) was added instead of the test compound. After completion of incubation, the mixture was washed with ice-cooled phosphate buffered saline containing 0.1% fetal bovine serum, and the cells were lysed with 1N NaOH (0.5 mL). The lysate was transfered to a plastic vial containing UltimaGold MV (5 mL), and the radioactivity was determined by means of a liquid liquid scintillation counter (Packard, 2000CA).
# as §1, §2, §3, §4, §5
# Sequence of NK-1 receptor (P25103 whole entry): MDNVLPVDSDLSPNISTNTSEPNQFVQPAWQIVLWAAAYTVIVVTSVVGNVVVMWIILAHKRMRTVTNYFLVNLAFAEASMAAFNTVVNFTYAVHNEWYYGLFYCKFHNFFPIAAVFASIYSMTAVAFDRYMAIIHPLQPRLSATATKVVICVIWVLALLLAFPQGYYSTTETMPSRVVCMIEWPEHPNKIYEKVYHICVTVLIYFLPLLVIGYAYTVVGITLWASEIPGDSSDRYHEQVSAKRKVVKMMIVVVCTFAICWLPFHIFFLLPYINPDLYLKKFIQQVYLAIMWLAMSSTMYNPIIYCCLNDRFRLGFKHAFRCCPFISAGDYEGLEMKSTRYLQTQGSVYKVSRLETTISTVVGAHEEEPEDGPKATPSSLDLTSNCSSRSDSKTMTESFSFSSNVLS
row,Structure (SMILES),IC50 [nM]
1,"COc1cccc(OC(=O)N(C)[C@](CCCN2CCC3(CC2)c2ccccc2C[S@+]3[O-])(CN(C)C(=O)CC(F)(F)F)c2ccc(Cl)c(Cl)c2)c1 [Compound No. 637, 3-methoxyphenyl{1-(3,3,3-trifluoro-N-methylpropanamido)-2-(S)-(3,4-dichlorophenyl)-5-[spiro(benzo(c)thiophene-(2S)-oxido-1(3H), 41-piperidin)-1′-yl]pentan-2-yl}methylcarbamate hydrochloride]",1.7
2,"Cc1ccc(OC(=O)N(C)[C@](CCCN2CCC3(CC2)c2ccccc2C[S@+]3[O-])(CN(C)C(=O)CC(F)(F)F)c2ccc(Cl)c(Cl)c2)cc1 [Compound No. 652, 4-tolyl{1-(3,3,3-trifluoro-N-methylpropanamido)-2-(S)-(3,4-dichlorophenyl)-5-[spiro(benzo(c)thiophene-(2S)-oxido-1(3H),4′-piperidin)-1′-yl]pentan-2-yl}methylcarbamate hydrochloride]",2.7
3,"CN(C[C@](CCCN1CCC2(CC1)c1ccccc1C[S@+]2[O-])(c1ccc(Cl)c(Cl)c1)N(C)C(=O)Oc1cccc(F)c1)C(=O)CC(F)(F)F [Compound No. 634, 3-fluorophenyl{1-(3,3,3-trifluoro-N-methylpropanamido)-2-(S)-(3,4-dichlorophenyl)-5-[spiro(benzo(c)thiophene-(2S)-oxido-1(3H),4′-piperidin)-1′-yl]pentan-2-yl}methylcarbamate hydrochloride]",2
4,"CN(C[C@](CCCN1CCC2(CC1)c1ccccc1C[S@+]2[O-])(c1ccc(Cl)c(Cl)c1)N(C)C(=O)Oc1ccccc1)C(=O)CC(F)(F)F [Compound No. 591, phenyl{1-(3,3,3-trifluoro-N-methylpropanamido)-2-(S)-(3,4-dichlorophenyl)-5-[spiro(benzo(c)thiophene-(2S)-oxido-1(3H),4′-piperidin)-1′-yl]pentan-2-yl}methylcarbamate hydrochloride]",6.9
5,"CN(C[C@](CCCN1CCC2(CC1)c1ccccc1C[S@+]2[O-])(c1ccc(Cl)c(Cl)c1)N(C)C(=O)Oc1ccc(Cl)cc1)C(=O)CC(F)(F)F [Compound No. 633, 4-chlorophenyl(1-(3,3,3-trifluoro-N-methylpropanamido)-2-(S)-(3,4-dichlorophenyl)-5-[spiro(benzo(c)thiophene-(2S)-oxido-1(3H),4′-piperidin)-1′-yl]pentan-2-yl}methylcarbamate hydrochloride]",8.3

# Same assay, conditions: Table 2; inhibition of [3H]-Substance P (0.5 nM) binding to hNK1-CHO cells, pseudo-Hill analysis; read-out: NK-1
row,Structure (SMILES),IC50 [nM]
1,"COc1cc(COC[C@](CCCN2CCC3(CC2)c2ccccc2C[S@+]3[O-])(c2ccc(Cl)c(Cl)c2)N(C)C(=O)NCc2cccc(F)c2)cc(OC)c1OC [Compound No. 618, 1-{1-(3,4,5-trimethoxybenzyloxy)-2-(S)-(3,4-dichlorophenyl)-5-[spiro(benzo(c)thiophene(2S)-oxido-1(3H),4′-piperidin)-1′-yl]pentan-2-yl}-3-(3-fluorobenzyl)-1-methylurea hydrochloride]",1.2
2,"COc1cc(COC[C@](CCCN2CCC3(CC2)c2ccccc2C[S@+]3[O-])(c2ccc(Cl)c(Cl)c2)N(C)C(=O)NCc2ccccc2F)cc(OC)c1OC [Compound No. 617, 1-{1-(3,4,5-trimethoxybenzyloxy)-2-(S)-(3,4-dichlorophenyl)-5-[spiro(benzo(c)thiophene(2S)-oxido-1(3H),4′-piperidin)-1′-yl]pentan-2-yl}-3-(2-fluorobenzyl)-1-methylurea hydrochloride]",0.54
